In PMC5524215 (Journal of clinical pharmacology, 2016):
Where two headings read alike, the source gives them in different places. Where a SMILES comes first, the peptide text is derived from it.

Assays:
[1] = Repeated dose pharmacokinetics of intravenous CN-105; format: in vivo, human; conditions: for Ratio 2/1: AUCTAU2/AUCTAU1, repeated 1 mg/kg i.v. infusions over 30 min; for Ratio 13/1: AUCTAU13/AUCTAU1, repeated 1 mg/kg i.v. infusions over 30 min; for AUCTAU1 / AUCTAU2 / AUCTAU13: repeated 1 mg/kg i.v. infusions over 30 min; for AUCTAU2: dose 2; for AUCTAU13: dose 13
[2] = in vivo, iv
[3] = rodent, GLP, 5 mg/kg/dose four times per day (20 mg/kg/day) for 14 days; cited from earlier work
[4] = beagle, GLP, 5 mg/kg/dose four times per day (20 mg/kg/day) for 14 days; cited from earlier work
[5] = murine pharmacokinetics; cited from earlier work
[6] = Single ascending dose pharmacokinetics of intravenous CN-105 in healthy adults
[7] = Safety and tolerability in healthy adult subjects; conditions: healthy adults, single 0.01-1.0 mg/kg and repeated 1 mg/kg i.v.
[8] = healthy adults, 1 mg/kg i.v. every 6 h for 72 h

CC(=O)N[C@H](C(=O)N[C@@H](CO)C(=O)N[C@@H](CCCNC(=N)N)C(=O)N[C@@H](CCCNC(=N)N)C(=O)N[C@@H](CCCNC(=N)N)C(N)=O)C(C)C [CN-105] (Ac-VSRRR-NH2; N-terminus and C-terminus assumed)
accumulation on repeated dosing ([1]; 1 mg/kg i.v. every 6 h for 72 h, judged by AUCTAU ratios between time points): no significant accumulation
Ratio 2/1 ([1]; geometric mean): 1.1
Ratio 2/1 ([1]; mean of subjects): 1.1
Ratio 2/1 ([1]; median): 1.1
Ratio 13/1 ([1]; geometric mean): 1.2
Ratio 13/1 ([1]; mean of subjects): 1.2
Ratio 13/1 ([1]; median): 1.3
time at which trough concentrations reached a stable plateau [1, 8]: ≤ 20 h
time to steady state [1, 8]: ≤ 24 h
half-life ([1]; human, plasma, iv, 1 mg/kg): 3.6 h
AUC(0-t) ([1]; human, plasma, iv, 1 mg/kg, AUCTAU1, repeated 1 mg/kg i.v. infusions over 30 min, dose 1, geometric mean): 9540 ng·h/mL
AUCTAU1 ([1]; dose 1, maximum among subjects): 11431.3
AUCTAU1 ([1]; dose 1, median): 9911.7
AUCTAU1 ([1]; dose 1, minimum among subjects): 7425.1
AUCTAU2 ([1]; geometric mean): 10506.5
AUCTAU2 ([1]; maximum among subjects): 12581.6
AUCTAU2 ([1]; median): 10448.8
AUCTAU2 ([1]; minimum among subjects): 8990.5
AUCTAU13 ([1]; geometric mean): 11328.6
AUCTAU13 ([1]; maximum among subjects): 14203.2
AUCTAU13 ([1]; median): 11600.4
AUCTAU13 ([1]; minimum among subjects): 9382.1
T1/2 ([2]; 0.01 mg/kg): 2.3 ± 0.5
T1/2 ([2]; 0.03 mg/kg): 2.4 ± 0.5
T1/2 ([2]; 0.1 mg/kg): 3.3 ± 0.6
T1/2 ([2]; 0.3 mg/kg): 3.6 ± .4
T1/2 ([2]; 1 mg/kg): 3.5 ± 0.3
tolerability of repeated intravenous administration [3]: well-tolerated
tolerability of repeated intravenous administration [4]: well-tolerated
half-life predicted by animal modeling [5]: 0.5 h
observed half-life at higher doses ([6]; healthy adults, i.v., higher doses): 3.6 h
half-life ([6]; human, plasma, iv): 3.5 h
AUC(0-inf) ([6]; human, plasma, iv, 0.01 mg/kg): 95.9 ± 20.2 ng·h/mL
Cmax ([6]; human, plasma, iv, 0.01 mg/kg): 35.7 ± 10.9 ng/mL
Vd ([6]; human, plasma, iv, 0.01 mg/kg): 29.8 ± 3.2 L
clearance ([6]; human, plasma, iv, 0.01 mg/kg): 150 mL/min
AUC(0-inf) ([6]; human, plasma, iv, 0.03 mg/kg): 281 ± 39.6 ng·h/mL
Cmax ([6]; human, plasma, iv, 0.03 mg/kg): 108 ± 25.5 ng/mL
Vd ([6]; human, plasma, iv, 0.03 mg/kg): 30.4 ± 8 L
clearance ([6]; human, plasma, iv, 0.03 mg/kg): 150 mL/min
AUC(0-inf) ([6]; human, plasma, iv, 0.1 mg/kg): 1130 ± 194 ng·h/mL
Cmax ([6]; human, plasma, iv, 0.1 mg/kg): 408 ± 129 ng/mL
Vd ([6]; human, plasma, iv, 0.1 mg/kg): 38.9 ± 12 L
clearance ([6]; human, plasma, iv, 0.1 mg/kg): 137 mL/min
AUC(0-inf) ([6]; human, plasma, iv, 0.3 mg/kg): 2670 ± 272 ng·h/mL
Cmax ([6]; human, plasma, iv, 0.3 mg/kg): 966 ± 209 ng/mL
Vd ([6]; human, plasma, iv, 0.3 mg/kg): 45.6 ± 11.2 L
clearance ([6]; human, plasma, iv, 0.3 mg/kg): 147 mL/min
AUC(0-inf) ([6]; human, plasma, iv, 1 mg/kg): 9550 ± 1280 ng·h/mL
Cmax ([6]; human, plasma, iv, 1 mg/kg): 3940 ± 507 ng/mL
Vd ([6]; human, plasma, iv, 1 mg/kg): 38.4 ± 8.1 L
clearance ([6]; human, plasma, iv, 1 mg/kg): 128 mL/min
changes in serial ECG, vital signs or clinical laboratory tests [7]: No concerning changes were observed
